Test results from patent US7189383B2, “Radioactively labelled amino acid analogues, their preparation and use” (Mallinckrodt Inc., priority 2002, dated 2007).

Legend:
[1] = test system: RIM tumour (rhabdomyo-sarcoma); test: In vivo evaluation of SPECT tracers in RIM tumour (rhabdomyo-sarcoma)-bearing rats; parameters: species or system rat
From the text: In the research that led to the invention two new potential SPECT tracers, 2-^123I-tyrosine (2-^123I-Tyr) and 2-^123-I-phenylalanine, were developed.

[2] = test system: R1M tumour; test: PET of R1M tumour bearing rat after intravenous injection; assay type: in vivo; settings: 120 Mbq intravenously, FIG. 2
From the text: FIG. 2: PET of R1M tumour bearing rat. The tumour is visible at the upper right, the pancreas in the middle and the bladder under. 120 Mbq L-2-^18F-methyl-phenylalanine was intravenously injected.
In Vivo Rat Evaluation of L-2-18F-methyl-phenylalanine in a R1M Tumour Bearing Rat by Means of PET
The latter is typical for rodent.

[3] = molecular target: T1, L-transport system 1 (LAT1) (Rattus norvegicus, UniProt Q63016); test: Inhibition of L-3H-phenylalanine uptake in rat rhabdomyo-sarcoma (R1M) cells in vitro; assay type: cell-based
T1 construct: endogenous in cells; host or cells: R1M rat rhabdomyosarcoma cells
Description: FIG. 1: Inhibition of ^3H-Phe/Phe uptake in R1M cells in vitro by L-2-F-methyl-PHE. The common intercept proves that the inhibition is competitive and that L-2-F-methyl-Phe uses the same transport system as L-Phe.
The affinity of L-2-F-methyl-phenylalanine for uptake by the L-transport system 1 (LAT1) in cancer cells (rat rhabdomyo-sarcoma cells) was determined by measuring the inhibition of the uptake of L-^3H-phenylalanine after 15 minutes incubation in HEPES buffer of pH 7.4 containing appropriate amounts of L-phenylalanine and of L-2-F-methyl-phenylalanine. The uptake was saturable and followed the typical Michaelis-Menten relation allowing to draw Lineweaver-Burk (FIG. 1) plots.

[4] = test system: R1M cells; test: Preliminary uptake experiments in R1M cells in vitro; assay type: cell-based; settings: buffer simulating in vivo conditions
From the text: The inventors considered based on the results obtained with ^18F-FET and their own results with 2-^123I-Phe and 2-^123I-Tyr that the aromatic amino acid properties are conserved after substitution of an O-ethyl group and even in the presence of a voluminous iodine atom. This invention is thus based on the new approach to introduce an alkyl side chain on the phenyl ring to facilitate introduction of the radioactive atom. They thus provided an ^18F-alkyl-phenyl structure in phenylalanine and tyrosine, either ortho, meta or para. Examples are ^18F-CH[…] or ^18F-CH2-CH[…] and 2-^18F-CH[…] or 2-^18F-CH2-CH[…]. This reduces the labelling chemistry to direct conventional nucleophilic aliphatic substitution on the alkylphenylic side branch of the L-amino acid. In this approach cumbersome stereospecific synthesis is not required. The same strategy was followed for the radio-fluorination of the aliphatic amino acids leucine and isoleucine. […] Since aliphatic-substituted F hardly changes the pharmacology, it follows that these aliphatic amino acids are also suitable molecules for radio-fluorination.

T1 sequence (Q63016 whole entry): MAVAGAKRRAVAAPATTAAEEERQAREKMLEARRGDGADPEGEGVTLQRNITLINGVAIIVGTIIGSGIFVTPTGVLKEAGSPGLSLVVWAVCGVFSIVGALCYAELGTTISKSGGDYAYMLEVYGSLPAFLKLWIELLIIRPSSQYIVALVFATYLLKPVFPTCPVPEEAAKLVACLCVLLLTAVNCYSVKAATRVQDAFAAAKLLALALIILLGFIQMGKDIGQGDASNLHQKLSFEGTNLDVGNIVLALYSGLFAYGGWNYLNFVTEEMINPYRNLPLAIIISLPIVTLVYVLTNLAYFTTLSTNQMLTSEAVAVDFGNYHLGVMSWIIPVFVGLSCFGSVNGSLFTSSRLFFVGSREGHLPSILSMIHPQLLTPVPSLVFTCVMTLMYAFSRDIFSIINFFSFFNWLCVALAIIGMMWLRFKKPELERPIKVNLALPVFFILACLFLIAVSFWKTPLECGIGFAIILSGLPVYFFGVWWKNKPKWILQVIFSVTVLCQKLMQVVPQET
T1 sequence (Q794F9 whole entry partner): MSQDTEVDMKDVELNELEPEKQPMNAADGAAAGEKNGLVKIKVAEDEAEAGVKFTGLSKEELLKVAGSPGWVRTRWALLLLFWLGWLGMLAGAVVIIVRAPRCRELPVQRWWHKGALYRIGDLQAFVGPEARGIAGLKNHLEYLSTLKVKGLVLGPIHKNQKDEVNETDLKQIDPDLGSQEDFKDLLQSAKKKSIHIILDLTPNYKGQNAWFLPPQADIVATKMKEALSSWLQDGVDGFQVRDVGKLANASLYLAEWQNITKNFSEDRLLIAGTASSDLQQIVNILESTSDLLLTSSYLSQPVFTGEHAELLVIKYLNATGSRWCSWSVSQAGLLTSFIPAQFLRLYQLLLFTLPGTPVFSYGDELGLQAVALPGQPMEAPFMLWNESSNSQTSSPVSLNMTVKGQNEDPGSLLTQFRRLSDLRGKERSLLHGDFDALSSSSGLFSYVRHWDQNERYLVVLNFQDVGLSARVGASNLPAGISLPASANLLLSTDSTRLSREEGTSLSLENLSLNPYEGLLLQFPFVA

N[C@@H](Cc1ccccc1[123I])C(=O)O [2-^123-I-phenylalanine]
activity in the kidneys relative to IMT ([1]; rat, in vivo): 10 times less | high brain uptake observed ([1]; rat, in vivo): no | renal accumulation ([1]; rat, in vivo): no renal accumulation | uptake in the tumours ([1]; rat, in vivo): high uptake

N[C@@H](Cc1ccc(O)cc1[123I])C(=O)O [2-^123I-tyrosine]
activity in the kidneys relative to IMT ([1]; RIM tumour-bearing rats): 10 times less | high brain uptake observed ([1]; RIM tumour-bearing rats): no | renal accumulation ([1]; RIM tumour-bearing rats): no renal accumulation | uptake in the tumours ([1]; RIM tumour-bearing rats, comparable with IMT): high uptake

N[C@@H](Cc1ccccc1C[18F])C(=O)O [L-2-18F-methyl-phenylalanine]
accumulation in the kidneys or other organs (PET) [2]: No accumulation | route of clearance (PET) [2]: cleared through the kidneys to the bladder | uptake in the tumour and pancreas (PET) [2]: high uptake

N[C@@H](Cc1ccccc1CF)C(=O)O [L-2-F-methyl-phenylalanine]
Ki ([3]; 15 minutes incubation, HEPES buffer pH 7.4, rat rhabdomyo-sarcoma cells): 76 µM | type of inhibition of 3H-Phe/Phe uptake (Lineweaver-Burk plots) ([3]; R1M cells in vitro, FIG. 1): competitive

N[C@@H](Cc1ccccc1)C(=O)O [L-phenylalanine]
Km ([3]; same conditions: 15 minutes incubation, HEPES buffer pH 7.4, rat rhabdomyo-sarcoma cells): 65 µM

CC(C)C[C@H](N)C(=O)O [^3H-leucine]
uptake in R1M cells [4]: comparable with 3H-Tyr and ^3H-Phe

^3H-isoleucine
uptake in R1M cells [4]: comparable with 3H-Tyr and ^3H-Phe
